Test results from ChEMBL document CHEMBL2407054, “Synthesis and antimicrobial activity of imidazole and pyridine appended cholestane-based conjugates” (2013).
In brackets after ≈: the same amount, converted by molar mass.

What was measured:
Staphylococcus aureus [1] = assay: Antibacterial activity against Staphylococcus aureus 241 by M07-A9 CLSI method; type: functional
[2] = test system: Staphylococcus epidermidis; assay: Antibacterial activity against Staphylococcus epidermidis 887E by M07-A9 CLSI method; type: functional
Klebsiella pneumoniae = assay: Antibacterial activity against Klebsiella pneumoniae 2011E by M07-A9 CLSI method; type: functional
Staphylococcus aureus [3] = assay: Antibacterial activity against Staphylococcus aureus ATCC 6538P by M07-A9 CLSI method; type: functional
Staphylococcus aureus [4] = assay: Antibacterial activity against Staphylococcus aureus 77 by M07-A9 CLSI method; type: functional
Salmonella typhimurium = assay: Antibacterial activity against Salmonella typhimurium ATCC 13311 by M07-A9 CLSI method; type: functional, Salmonella enterica subsp. enterica serovar Typhimurium; conditions: Salmonella enterica
Bacillus subtilis = assay: Antibacterial activity against Bacillus subtilis ATCC 6633 by M07-A9 CLSI method; type: functional
Staphylococcus aureus [5] = assay: Antibacterial activity against Staphylococcus aureus Giorgio by M07-A9 CLSI method; type: functional
Bacillus licheniformis = assay: Antibacterial activity against Bacillus licheniformis EMR by M07-A9 CLSI method; type: functional
Kocuria rhizophila = assay: Antibacterial activity against Micrococcus luteus ATCC 9341 by M07-A9 CLSI method; type: functional
Staphylococcus aureus [6] = assay: Antibacterial activity against Staphylococcus aureus ATCC 25923 by M07-A9 CLSI method; type: functional
Proteus vulgaris = assay: Antibacterial activity against Proteus vulgaris 6059 by M07-A9 CLSI method; type: functional
Klebsiella aerogenes = assay: Antibacterial activity against Klebsiella aerogenes (SHV-1) 1976E by M07-A9 CLSI method; type: functional
Pseudomonas aeruginosa = assay: Antibacterial activity against Pseudomonas aeruginosa 6065Y by M07-A9 CLSI method; type: functional
Escherichia coli = assay: Antibacterial activity against Escherichia coli ATCC 25922 by M07-A9 CLSI method; type: functional
Bacillus cereus = assay: Antibacterial activity against Bacillus cereus ATCC 27348 by M07-A9 CLSI method; type: functional
Enterococcus faecalis = assay: Antibacterial activity against Enterococcus faecalis ATCC 29212 by M07-A9 CLSI method; type: functional

MIC (Staphylococcus aureus [1]) [µg/mL]	MIC [2] [µg/mL]	MIC (Klebsiella pneumoniae) [µg/mL]	MIC (Staphylococcus aureus [3]) [µg/mL]	MIC (Staphylococcus aureus [4]) [µg/mL]	MIC (Salmonella typhimurium) [µg/mL]	MIC (Bacillus subtilis) [µg/mL]	MIC (Staphylococcus aureus [5]) [µg/mL]	MIC (Bacillus licheniformis) [µg/mL]	MIC (Kocuria rhizophila) [µg/mL]	MIC (Staphylococcus aureus [6]) [µg/mL]	MIC (Proteus vulgaris) [µg/mL]	MIC (Klebsiella aerogenes) [µg/mL]	MIC (Pseudomonas aeruginosa) [µg/mL]	MIC (Escherichia coli) [µg/mL]	MIC (Bacillus cereus) [µg/mL]	MIC (Enterococcus faecalis) [µg/mL]	SMILES
16 (≈ 32.3 µM)	16 (≈ 32.3 µM)	> 32	8 (≈ 16.1 µM)	> 32	> 32	32 (≈ 64.5 µM)	8 (≈ 16.1 µM)	32 (≈ 64.5 µM)	8 (≈ 16.1 µM)	8 (≈ 16.1 µM)	> 32	> 32	> 32	> 32	32 (≈ 64.5 µM)	8 (≈ 16.1 µM)	CC(C)CCC[C@@H](C)[C@H]1CC[C@H]2[C@@H]3C(=O)C[C@H]4C[C@H](NCCn5ccnc5)CC[C@]4(C)[C@H]3CC[C@]12C
32 (≈ 62.8 µM)	16 (≈ 31.4 µM)	> 32	8 (≈ 15.7 µM)	8 (≈ 15.7 µM)	> 32	8 (≈ 15.7 µM)	8 (≈ 15.7 µM)	32 (≈ 62.8 µM)	8 (≈ 15.7 µM)	8 (≈ 15.7 µM)	> 32	> 32	> 32	> 32	16 (≈ 31.4 µM)	32 (≈ 62.8 µM)	CC(C)CCC[C@@H](C)[C@H]1CC[C@H]2[C@@H]3C(=O)C[C@H]4C[C@H](NCCCn5ccnc5)CC[C@]4(C)[C@H]3CC[C@]12C
32 (≈ 64.5 µM)	16 (≈ 32.3 µM)	> 32	8 (≈ 16.1 µM)	16 (≈ 32.3 µM)	> 32	32 (≈ 64.5 µM)	16 (≈ 32.3 µM)	32 (≈ 64.5 µM)	16 (≈ 32.3 µM)	16 (≈ 32.3 µM)	> 32	> 32	> 32	> 32	32 (≈ 64.5 µM)	16 (≈ 32.3 µM)	CC(C)CCC[C@@H](C)[C@H]1CC[C@H]2[C@@H]3C(=O)C[C@H]4C[C@H](NCCc5cnc[nH]5)CC[C@]4(C)[C@H]3CC[C@]12C
32 (≈ 64.9 µM)	4 (≈ 8.12 µM)	> 32	2 (≈ 4.06 µM)	32 (≈ 64.9 µM)	> 32	4 (≈ 8.12 µM)	4 (≈ 8.12 µM)	32 (≈ 64.9 µM)	8 (≈ 16.2 µM)	4 (≈ 8.12 µM)	> 32	> 32	> 32	> 32	16 (≈ 32.5 µM)	8 (≈ 16.2 µM)	CC(C)CCC[C@@H](C)[C@H]1CC[C@H]2[C@@H]3C(=O)C[C@H]4C[C@H](NCc5ccccn5)CC[C@]4(C)[C@H]3CC[C@]12C
> 32	16 (≈ 31.6 µM)	> 32	8 (≈ 15.8 µM)	32 (≈ 63.1 µM)	> 32	32 (≈ 63.1 µM)	8 (≈ 15.8 µM)	32 (≈ 63.1 µM)	32 (≈ 63.1 µM)	8 (≈ 15.8 µM)	> 32	> 32	> 32	> 32	> 32	16 (≈ 31.6 µM)	CC(C)CCC[C@@H](C)[C@H]1CC[C@H]2[C@@H]3C(=O)C[C@H]4C[C@H](NCCc5ccccn5)CC[C@]4(C)[C@H]3CC[C@]12C
8 (≈ 13.1 µM)	8 (≈ 13.1 µM)	> 32	8 (≈ 13.1 µM)	16 (≈ 26.1 µM)	> 32	8 (≈ 13.1 µM)	8 (≈ 13.1 µM)	8 (≈ 13.1 µM)	8 (≈ 13.1 µM)	8 (≈ 13.1 µM)	> 32	> 32	> 32	> 32	32 (≈ 52.2 µM)	16 (≈ 26.1 µM)	CC(C)CCC[C@@H](C)[C@H]1CC[C@H]2[C@@H]3[C@H](NCCc4ccccn4)C[C@H]4C[C@H](NCCc5ccccn5)CC[C@]4(C)[C@H]3CC[C@]12C

Further lines, the compound ahead of its results:

SMILES	MIC (Staphylococcus aureus [1]) [µg/mL]	MIC [2] [µg/mL]	MIC (Klebsiella pneumoniae) [µg/mL]	MIC (Staphylococcus aureus [3]) [µg/mL]	MIC (Staphylococcus aureus [4]) [µg/mL]	MIC (Salmonella typhimurium) [µg/mL]	MIC (Bacillus subtilis) [µg/mL]	MIC (Staphylococcus aureus [5]) [µg/mL]	MIC (Bacillus licheniformis) [µg/mL]	MIC (Kocuria rhizophila) [µg/mL]	MIC (Staphylococcus aureus [6]) [µg/mL]	MIC (Proteus vulgaris) [µg/mL]	MIC (Klebsiella aerogenes) [µg/mL]	MIC (Pseudomonas aeruginosa) [µg/mL]	MIC (Escherichia coli) [µg/mL]	MIC (Bacillus cereus) [µg/mL]	MIC (Enterococcus faecalis) [µg/mL]
CC(C)CCC[C@@H](C)[C@H]1CC[C@H]2[C@@H]3[C@H](NCCCn4ccnc4)C[C@H]4C[C@H](NCCCn5ccnc5)CC[C@]4(C)[C@H]3CC[C@]12C	4 (≈ 6.46 µM)	4 (≈ 6.46 µM)	> 32	2 (≈ 3.23 µM)	4 (≈ 6.46 µM)	> 32	4 (≈ 6.46 µM)	4 (≈ 6.46 µM)	4 (≈ 6.46 µM)	4 (≈ 6.46 µM)	2 (≈ 3.23 µM)	> 32	> 32	> 32	> 32	8 (≈ 12.9 µM)	4 (≈ 6.46 µM)
CC(C)CCC[C@@H](C)[C@H]1CC[C@H]2[C@@H]3[C@H](NCCn4ccnc4)C[C@H]4C[C@H](NCCn5ccnc5)CC[C@]4(C)[C@H]3CC[C@]12C	16 (≈ 27.1 µM)	16 (≈ 27.1 µM)	> 32	4 (≈ 6.77 µM)	4 (≈ 6.77 µM)	> 32	8 (≈ 13.5 µM)	4 (≈ 6.77 µM)	32 (≈ 54.2 µM)	4 (≈ 6.77 µM)	8 (≈ 13.5 µM)	> 32	> 32	> 32	> 32	16 (≈ 27.1 µM)	16 (≈ 27.1 µM)
CC(C)CCC[C@@H](C)[C@H]1CC[C@H]2[C@@H]3[C@H](NCc4ccccn4)C[C@H]4C[C@H](NCc5ccccn5)CC[C@]4(C)[C@H]3CC[C@]12C	2 (≈ 3.42 µM)	1 (≈ 1.71 µM)	> 32	2 (≈ 3.42 µM)	2 (≈ 3.42 µM)	> 32	2 (≈ 3.42 µM)	2 (≈ 3.42 µM)	2 (≈ 3.42 µM)	2 (≈ 3.42 µM)	2 (≈ 3.42 µM)	> 32	> 32	> 32	> 32	8 (≈ 13.7 µM)	4 (≈ 6.84 µM)
CC(C)CCC[C@@H](C)[C@H]1CC[C@H]2[C@@H]3[C@H](NCCc4cnc[nH]4)C[C@H]4C[C@H](NCCc5cnc[nH]5)CC[C@]4(C)[C@H]3CC[C@]12C [3ALPHA,7ALPHA-BIS[2-(5-IMIDAZOLYL)ETHYL]AMINO-5ALPHA-CHOLESTANE]	8 (≈ 13.5 µM)	8 (≈ 13.5 µM)	> 32	4 (≈ 6.77 µM)	8 (≈ 13.5 µM)	> 32	> 32	8 (≈ 13.5 µM)	> 32	16 (≈ 27.1 µM)	8 (≈ 13.5 µM)	> 32	> 32	> 32	> 32	32 (≈ 54.2 µM)	8 (≈ 13.5 µM)
Cc1onc(-c2ccccc2)c1C(=O)N[C@@H]1C(=O)N2[C@@H]1SC(C)(C)[C@@H]2C(=O)O [OXACILLIN]	> 32	> 32	> 32	0.25 (≈ 0.623 µM)	4 (≈ 9.96 µM)	> 32	16 (≈ 39.9 µM)	0.5 (≈ 1.25 µM)	> 32	0.03 (≈ 0.0747 µM)	0.25 (≈ 0.623 µM)	> 32	> 32	> 32	> 32	> 32	32 (≈ 79.7 µM)
CN[C@H](CC(C)C)C(=O)N[C@H]1C(=O)N[C@@H](CC(N)=O)C(=O)N[C@H]2C(=O)N[C@H]3C(=O)N[C@H](C(=O)N[C@H](C(=O)O)c4cc(O)cc(O)c4-c4cc3ccc4O)[C@H](O)c3ccc(c(Cl)c3)Oc3cc2cc(c3O[C@@H]2O[C@H](CO)[C@@H](O)[C@H](O)[C@H]2O[C@H]2C[C@](C)(N)[C@H](O)[C@H](C)O2)Oc2ccc(cc2Cl)[C@H]1O [VANCOMYCIN]			> 32			> 32	2 (≈ 1.38 µM)		> 32	1 (≈ 0.69 µM)		> 32	> 32	> 32	> 32	> 32	2 (≈ 1.38 µM)
